Source: PMC8812735, “Discovery of triterpenoids as potent dual inhibitors of pancreatic lipase and human carboxylesterase 1” (Journal of Enzyme Inhibition and Medicinal Chemistry, 2022)

Experiments:
Type in all cases: biochemical
[1] = target: dipeptidyl peptidase-IV (DPP-IV) (Homo sapiens, UniProt P27487); test: Inhibition of DPP-IV-mediated GP-BAN hydrolysis; settings: substrate: GP-BAN
Experimental: The details for DPP-IV inhibition has been reported previously[49]^,[50]. The fluorescent signal of the hydrolytic product (BAN) was measured by a fluorescence microplate reader at an excitation wavelength of 430 nm, an emission wavelength of 535 nm (gain = 500).

[2] = target: T1, Pancreatic lipase (PL) (Sus scrofa, UniProt P00591); test: Inhibition of PL-mediated 4-MUO hydrolysis; settings: for Inhibition mode PL / Ki / IC50: 4-MUO substrate; for Ki: Lineweaver–Burk second plot; for IC50: mean ± SD (n = 3); for Reversibility of PL inhibition: dose-response curves not affected by pre-incubation times
T1 construct: purchased Sigma Aldrich type II, Lot.SLBN9099V
T1 sequence (P00591 1-450): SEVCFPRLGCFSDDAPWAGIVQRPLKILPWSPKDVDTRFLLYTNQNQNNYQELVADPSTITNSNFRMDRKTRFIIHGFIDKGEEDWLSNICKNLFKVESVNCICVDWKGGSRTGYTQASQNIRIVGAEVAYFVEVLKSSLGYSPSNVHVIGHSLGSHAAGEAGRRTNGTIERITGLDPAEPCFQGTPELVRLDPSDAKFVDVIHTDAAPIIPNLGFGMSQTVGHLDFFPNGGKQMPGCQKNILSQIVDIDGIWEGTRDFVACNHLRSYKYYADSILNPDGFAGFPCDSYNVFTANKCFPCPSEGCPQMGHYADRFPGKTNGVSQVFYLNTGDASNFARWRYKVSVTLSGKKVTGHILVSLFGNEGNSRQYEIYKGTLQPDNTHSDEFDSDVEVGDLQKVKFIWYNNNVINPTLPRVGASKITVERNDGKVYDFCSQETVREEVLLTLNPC
Experimental: In addition, the background fluorescence in the absence of an enzyme source (PL) (add the same amount of citrate-Na2HPO4 buffer) was measured. […] Then start the reaction by adding 2 µL of 4-MUO probe (3 µM, final concentration). The fluorescence signal of 4-MU (hydrolytic metabolite) was detected by multi-mode microplate reader (SpectraMax M4, Molecular Devices, Urstein, Austria) with continuous oscillation for 20 min and recorded and analysed at 60 s intervals. The excitation wavelength and emission wavelength of 4-MU were set at 340 nm and 460 nm, respectively, and the gain value was 500.
(§1) Subsequently, various concentrations of substrates (selected according to Km) and different concentrations of inhibitors were used to determine the corresponding reaction rate, and the second slope graph of the Lineweaver–Burk diagram was used as a function of the inhibitor to calculate the corresponding inhibition constant (Ki) value. All kinetic data were fitted by the following kinetic equations (a–c), for competitive (a), non-competitive (b) and mixed inhibition (c): (a) V=(VmaxS)/[Km(1+I/Ki)+S] (b) V=(VmaxS)/[(Km+S)×(1+I/Ki)] (c) V=(VmaxS)/[(Km+S)×(1+I/αKi)] where V is the hydrolytic velocity of the reaction, Vmax is the maximum velocity. S and I are substrate (4-MUO, NLMe) and inhibitor (compound 39/41) concentrations, respectively. Ki is the inhibition constant of the tested inhibitor against the target PL and hCES1A; Km is the Michaelis constant (the substrate concentration at half of the Vmax).
All measurements were made in triplicate and the data obtained in the experiment were shown as mean ± SD.

[3] = target: T2, hCES1A (Homo sapiens, UniProt P23141); test: Inhibition of hCES1A-mediated NLMe hydrolysis in human liver microsomes; settings: for Inhibition mode hCES1A / Ki / IC50: NLMe substrate, HLM; for Ki: Lineweaver–Burk second plot; for IC50: mean ± SD (n = 3), read-out: IC50 (µM) hCES1A; for Reversibility of hCES1A inhibition: dose-response curves not affected by pre-incubation times
T2 construct: tissue Bioreclamation IVT lot No. X008067; host or cells: pooled human liver microsomes from 50 donors
T2 sequence (P23141 18-567): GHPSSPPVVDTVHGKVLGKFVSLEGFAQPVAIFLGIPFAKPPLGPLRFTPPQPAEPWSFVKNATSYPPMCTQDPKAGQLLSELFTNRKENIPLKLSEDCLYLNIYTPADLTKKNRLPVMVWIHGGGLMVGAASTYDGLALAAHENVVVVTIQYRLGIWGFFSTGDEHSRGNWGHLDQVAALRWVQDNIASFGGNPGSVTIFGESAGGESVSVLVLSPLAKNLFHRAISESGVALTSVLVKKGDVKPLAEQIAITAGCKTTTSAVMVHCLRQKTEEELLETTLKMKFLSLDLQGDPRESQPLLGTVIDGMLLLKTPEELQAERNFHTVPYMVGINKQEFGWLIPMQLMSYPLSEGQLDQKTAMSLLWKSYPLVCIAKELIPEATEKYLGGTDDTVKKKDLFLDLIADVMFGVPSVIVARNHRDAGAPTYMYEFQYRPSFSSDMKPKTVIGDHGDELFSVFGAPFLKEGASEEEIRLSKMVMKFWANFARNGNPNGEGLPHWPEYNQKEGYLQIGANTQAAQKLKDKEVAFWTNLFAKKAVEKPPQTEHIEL
Experimental: N-Alkylated D-luciferin methyl ester (NLMe), a Specific probe for hCES1A[45], was used for assessing the inhibitory effects for triterpenoids, and BNPP was used as a positive inhibitor of hCES1A. […] Then NLMe (2 µL, 0.15 mM) was added to start the reaction. After shaking the reaction in 37 °C incubator for 10 min, 50 µL of reaction solution was removed and mixed with LDR (50 µL) to terminate the reaction. A multi-mode microplate reader was used to detect the luminescence signal of NL (the hydrolysed metabolite of NLMe). The luminescence product of NL was measured at 580 nm (gain: 140). The final volume ratio of DMSO was less than 1% (V/V).
as §1
All measurements were made in triplicate and the data obtained in the experiment were shown as mean ± SD. The IC50 and Ki values of the compounds with strong inhibitory effect were evaluated by nonlinear regression with graphpad prism 7.0 software (GraphPad Software, Inc., La Jolla, CA).

[4] = target: T3, Butyrylcholinesterase (BuChE) (Homo sapiens, UniProt P06276); test: Inhibition of BuChE-mediated BTCH hydrolysis
T3 construct: from tissue; host or cells: human serum
T3 sequence (P06276 29-602): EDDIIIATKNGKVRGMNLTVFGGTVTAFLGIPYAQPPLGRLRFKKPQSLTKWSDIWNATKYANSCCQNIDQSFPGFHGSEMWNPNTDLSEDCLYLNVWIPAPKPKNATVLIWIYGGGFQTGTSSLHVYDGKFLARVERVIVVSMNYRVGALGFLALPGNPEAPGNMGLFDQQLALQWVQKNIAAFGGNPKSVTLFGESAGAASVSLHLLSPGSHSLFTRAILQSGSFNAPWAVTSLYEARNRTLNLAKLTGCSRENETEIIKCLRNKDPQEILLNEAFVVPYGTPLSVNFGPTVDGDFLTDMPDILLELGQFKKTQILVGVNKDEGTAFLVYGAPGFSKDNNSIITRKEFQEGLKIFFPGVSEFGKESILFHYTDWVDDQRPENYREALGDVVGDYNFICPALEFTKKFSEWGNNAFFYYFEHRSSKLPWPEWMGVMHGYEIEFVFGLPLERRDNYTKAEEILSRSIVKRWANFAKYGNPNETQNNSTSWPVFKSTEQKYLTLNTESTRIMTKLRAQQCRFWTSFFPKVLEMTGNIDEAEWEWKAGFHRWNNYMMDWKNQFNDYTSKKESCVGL
Experimental: To assay the inhibitory effects of triterpenoids on Butyrylcholinesterase (BuChE), butyrylthiocholine (BTCH) was used as a substrate for BuChE, The total volume of the system was 100 µL. Including 2 µL DMSO/inhibitor, 2 µL human serum, 84 µL buffered PBS (pH 7.4, 0.1 M), 10 µL substrate iodised butyrylthiocholine (0.3 mM, final concentration) and 2 µL developer 5–5′-dithiobis(2-nitrobenzoic acid) (DTNB) (1 mM, final concentration). The assay protocol of […] was depicted previously. All measurements were performed in triplicates.

Chain of dipeptidyl peptidase-IV (DPP-IV) (P27487 whole entry): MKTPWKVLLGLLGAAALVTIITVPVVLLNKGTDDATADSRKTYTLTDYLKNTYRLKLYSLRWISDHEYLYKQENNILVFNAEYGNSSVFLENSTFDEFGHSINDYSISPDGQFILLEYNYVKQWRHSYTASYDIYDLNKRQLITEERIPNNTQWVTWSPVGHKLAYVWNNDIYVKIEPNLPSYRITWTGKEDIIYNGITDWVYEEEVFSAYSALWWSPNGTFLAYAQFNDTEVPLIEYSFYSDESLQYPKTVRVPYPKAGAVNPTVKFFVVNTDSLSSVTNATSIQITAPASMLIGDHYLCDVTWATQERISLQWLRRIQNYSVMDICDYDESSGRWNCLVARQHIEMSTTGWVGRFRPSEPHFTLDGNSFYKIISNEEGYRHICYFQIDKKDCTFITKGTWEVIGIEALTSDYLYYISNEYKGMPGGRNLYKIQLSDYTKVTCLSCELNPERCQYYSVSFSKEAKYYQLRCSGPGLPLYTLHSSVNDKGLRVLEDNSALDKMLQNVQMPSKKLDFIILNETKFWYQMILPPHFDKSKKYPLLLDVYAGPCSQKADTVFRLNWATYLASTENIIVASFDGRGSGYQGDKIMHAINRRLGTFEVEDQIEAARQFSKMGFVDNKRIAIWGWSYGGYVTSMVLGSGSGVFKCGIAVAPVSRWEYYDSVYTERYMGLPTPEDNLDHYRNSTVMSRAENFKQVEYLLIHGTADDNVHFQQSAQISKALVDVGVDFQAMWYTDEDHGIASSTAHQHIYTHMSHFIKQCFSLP

Compound | IC50 [1] [µM] | Inhibition mode PL [2] | Ki [2] [µM] | IC50 [2] [µM] | Reversibility of PL inhibition [2] | Inhibition mode hCES1A [3] | Ki [3] [µM] | IC50 [3] [µM] | Reversibility of hCES1A inhibition [3] | IC50 [4] [nM]
CC(=O)OC1CCC2(C)C(CCC3(C)C2CC=C2C4C(C)C(C)CCC4(C(=O)O)CCC23C)C1(C)C (centres unmarked) [Compound 41] | > 100 | Mixed | 0.58 | 0.75 ± 0.12 | reversible inhibitors | Competitive | 0.019 | 0.014 ± 0.002 | reversible inhibitors | > 100000
CC1(C)CCC2(C(=O)O)CCC3(C)C(=CCC4C5(C)C=C(O)C(=O)C(C)(C)C5CCC43C)C2C1 (centres unmarked) [Compound 39] | > 100 | Mixed | 1.45 | 2.13 ± 0.19 | reversible inhibitors | Competitive | 0.043 | 0.055 ± 0.006 | reversible inhibitors | > 100000
